# Data published in patent EP4678638A1, “NEW E3 UBIQUITIN LIGASE LIGAND, PROTEIN DEGRADATION AGENT AND USE THEREOF” (priority 2023, dated 2024).
# Legend:
# [1] = biological target: T1, FAK (Homo sapiens, UniProt Q05397); assay: Western blot degradation of FAK; format: cell-based; conditions: Table D7
# T1 construct: evaluate the effects of the compounds of the present disclosure on the expression of target proteins in cells; endogenous in cells
# Procedure: Conventional Western blot assay was performed to evaluate the effects of the compounds of the present disclosure on the expression of target proteins in cells.
# (1) Cell Seeding and Protein Harvesting: The selected cells were processed according to the cell seeding procedure and protein harvesting procedure in Table III-2. Table III-2 Cell Seeding and Protein Harvesting Procedures
# (2) To the collected supernatant, 5X SDS sample loading buffer was added, followed by denaturation at 95°C for 5 minutes. The denatured samples were then separated by SDS-PAGE electrophoresis on a polyacrylamide gel. Proteins were transferred to a nitrocellulose membrane (0.45 µm NC membrane), blocked with blocking buffer at room temperature for 1 hour, and subjected to antibody incubation and development procedures according to the antibody manufacturer's instructions (Cell Signaling Technology).
# Half-Maximal Degradation Concentration value (the drug concentration required for degrading proteins by 50%, abbreviated as DC50) reads method: comparing the grayscale values of Western blot bands from drug-treated samples with those from blank DMSO-treated controls, and identifying the drug concentration range at which the grayscale value is half that of the DMSO-treated control bands.
# DC50 values can be calculated using ImageJ software to measure grayscale values of Western blot bands from drug-treated samples. The concentration-response curve is fitted to estimate the drug concentration corresponding to half the grayscale value.
# Target protein remaining (%) refers to the percentage of target protein remaining in hPBMC cells after treatment with protein degrader compounds.
# Calculation method for target protein remaining (%): Use ImageJ software to measure grayscale values of Western blot bands from drug (protein degrader)-treated samples. The grayscale value of drug-treated bands is divided by that of internal control protein bands, and the resulting quotient is normalized to obtain the relative percentage of remaining target protein after protein degrader treatment.
# Target protein degradation rate (%) = 100% - target protein remaining (%).
# [2] = system: CCRF-CEM; assay: CCK-8 proliferation, CCRF-CEM; format: cell-based, Human; conditions: Homo sapiens, CCRF-CEM; CCK-8; 96 hours; read-out: Inhibitory activity (IC50) on tumor cell proliferation, CCRF-CEM
# Summary of the method: (§1)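 CCK-8 viability readout; IC50 from growth-inhibition curve fitting. Cells plated, dosed 24h later with a 10-point series, top 10µM, 5-fold steps. Culture at 37°C, 5% CO2.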
# [3] = biological target: T2, human Cereblon WT GST-tagged protein (Homo sapiens, UniProt Q96SW2); assay: CRBN binding, HTRF (CEREBLON BINDING kit); conditions: Table II-2, CRBN binding screening, HTRF; for inhibition at 0.5 µM: read-out: Inhibition rate (%) at 0.5µM; for inhibition at 2 µM: read-out: Inhibition rate (%) at 2 µM
# T2 construct: purchased CISBIO 64BDCRBNPEH
# Summary of the method: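 After 3 h at room temperature, emission at 665 and 620 nm was measured in a homogeneous time-resolved fluorescence format. Compounds competed with a Thalidomide-Re probe for GST-tagged wild-type human CRBN, which was labelled with a Eu anti-GST antibody.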
# [4] = system: Jurkat; assay: CCK-8 proliferation, Jurkat; format: cell-based, Human; conditions: Homo sapiens, Jurkat; CCK-8; 96 hours; read-out: Inhibitory activity (IC50) on tumor cell proliferation, Jurkat
# Procedure: (§2) The tumor cells used herein were cultured in a cell culture medium listed in table A1 at 37°C in an incubator with 5% CO2. Prior to experimentation, all cell lines used were correctly identified by STR profiling, and tested negative for mycoplasma contamination using a mycoplasma detection kit through routine screenings. Table A1. Tumor cells and cell culture medium used in the present disclosure
# (§3) IC50 values of the compounds of the present disclosure (including the compounds in Table 1, and compounds of examples) were measured using the Meilun Cell Counting Kit-8 kit from Dalian Meilun Biotech Co., Ltd. Assay details are as follows: tumor cells were seeded in a 96-well plate at a density listed in Table A2. After 24h, 100 µL of the inoculated cells were treated with 0.5µL of the compounds of the present disclosure (including the compounds in Tables 1 and 2, and compounds of examples) at 10 different successively decreasing concentrations (starting at the highest concentration of 10µM; 5-fold serial dilutions). After the cells were treated with the compounds of the present disclosure for a period of time, the cell viability detection reagent was added to the culture medium for cell viability assessment according to the instructions provided with the CCK-8 kit. […] The growth inhibition of the compounds of the present disclosure on cells was plotted by Prism Graphpad software, and the IC50 values of the compounds of the present disclosure were calculated therefrom. […] Seeding protocol and treatment time for tumor cells
# [5] = system: H2228; assay: CCK-8 proliferation, NCI-H2228 (H2228); format: cell-based; conditions: Homo sapiens, NCI-H2228; CCK-8; 96 hours; read-out: Inhibitory activity (IC50) on tumor cell proliferation, H2228
# Summary of the method: as §1
# [6] = system: SW620; assay: CCK-8 proliferation, SW620; format: cell-based; conditions: Homo sapiens, SW-620; CCK-8; 96 hours; read-out: Inhibitory activity (IC50) on tumor cell proliferation, SW620
# Procedure: as §2, §3
# [7] = system: H1975; assay: CCK-8 proliferation, NCI-H1975 (H1975); format: cell-based, Human; conditions: Homo sapiens, NCI-H1975; CCK-8; 96 hours; read-out: Inhibitory activity (IC50) on tumor cell proliferation, H1975
# Summary of the method: as §1
# [8] = system: PC-9; assay: CCK-8 proliferation, PC-9; format: cell-based, Human; conditions: Homo sapiens, PC-9; CCK-8; 96 hours; read-out: Inhibitory activity (IC50) on tumor cell proliferation, PC-9
# Procedure: as §2, §3
# T1 sequence (Q05397 whole entry, species assumed): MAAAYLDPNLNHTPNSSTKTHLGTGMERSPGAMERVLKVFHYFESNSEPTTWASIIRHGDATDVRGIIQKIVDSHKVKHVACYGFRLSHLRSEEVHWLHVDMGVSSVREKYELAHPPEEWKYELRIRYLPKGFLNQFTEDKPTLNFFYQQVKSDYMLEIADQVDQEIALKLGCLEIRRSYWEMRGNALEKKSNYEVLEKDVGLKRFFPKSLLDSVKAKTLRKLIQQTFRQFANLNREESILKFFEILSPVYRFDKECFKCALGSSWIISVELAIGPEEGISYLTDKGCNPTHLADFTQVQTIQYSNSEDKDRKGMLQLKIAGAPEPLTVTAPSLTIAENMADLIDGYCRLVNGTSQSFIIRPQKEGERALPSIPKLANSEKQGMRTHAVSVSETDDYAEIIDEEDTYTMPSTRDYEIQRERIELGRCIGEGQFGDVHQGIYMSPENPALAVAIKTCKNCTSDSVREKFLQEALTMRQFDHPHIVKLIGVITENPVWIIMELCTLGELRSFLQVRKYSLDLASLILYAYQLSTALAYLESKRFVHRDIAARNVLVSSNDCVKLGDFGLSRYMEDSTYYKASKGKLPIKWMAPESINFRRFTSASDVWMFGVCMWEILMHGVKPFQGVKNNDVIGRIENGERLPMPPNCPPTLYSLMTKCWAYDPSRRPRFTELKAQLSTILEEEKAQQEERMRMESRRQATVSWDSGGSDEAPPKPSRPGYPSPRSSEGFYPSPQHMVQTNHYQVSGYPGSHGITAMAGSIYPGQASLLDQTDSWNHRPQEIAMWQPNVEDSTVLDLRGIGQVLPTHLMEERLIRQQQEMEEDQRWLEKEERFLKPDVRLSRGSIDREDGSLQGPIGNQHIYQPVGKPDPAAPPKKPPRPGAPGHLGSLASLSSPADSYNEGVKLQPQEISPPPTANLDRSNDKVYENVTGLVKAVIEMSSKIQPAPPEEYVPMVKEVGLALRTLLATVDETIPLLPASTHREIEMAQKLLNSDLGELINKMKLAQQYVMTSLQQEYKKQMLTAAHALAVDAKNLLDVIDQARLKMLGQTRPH
# T2 sequence (Q96SW2 whole entry): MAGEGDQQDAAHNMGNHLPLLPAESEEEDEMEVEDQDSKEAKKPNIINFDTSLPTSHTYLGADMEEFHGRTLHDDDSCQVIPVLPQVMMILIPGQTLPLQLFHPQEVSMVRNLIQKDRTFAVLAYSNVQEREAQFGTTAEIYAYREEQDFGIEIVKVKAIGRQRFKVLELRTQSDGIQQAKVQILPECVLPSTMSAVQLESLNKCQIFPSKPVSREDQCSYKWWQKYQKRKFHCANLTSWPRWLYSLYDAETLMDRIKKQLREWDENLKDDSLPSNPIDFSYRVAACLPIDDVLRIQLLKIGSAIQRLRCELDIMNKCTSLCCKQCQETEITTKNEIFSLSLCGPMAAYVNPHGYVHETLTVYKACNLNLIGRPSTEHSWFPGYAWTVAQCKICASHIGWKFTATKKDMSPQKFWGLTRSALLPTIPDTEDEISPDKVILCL
inhibition at 0.5 µM [3],inhibition at 2 µM [3],SMILES,Degradation of substrate protein FAK (substrate protein remaining %) [1],also measured
30 to 40%,53 to 60%,"CNC(=O)c1ccccc1Nc1cc(Nc2cc(C)c(N3CCN(Cc4ccc(C5CCC(=O)NC5=O)cc4)CC3)cc2OC(C)C)ncc1C(F)(F)F (stereo not drawn) [GT-03946, 2-((2-((4-(4-(4-(2,6-dioxopiperidin-3-yl)benzyl)piperazin-1-yl)-2-isopropoxy-5-methylphenyl)amino)-5-(trifluoromethyl)pyridin-4-yl)amino)-N-methylbenzamide]",A (A is defined as 0% ≤ substrate protein remaining % ≤ 80%),–
53 to 60%,80 to 100%,"COc1cc(C(=O)NC2CCN(Cc3ccc(C4CCC(=O)NC4=O)cc3)CC2)c(F)cc1Nc1ncc(C(F)(F)F)c(Oc2cccc3c2C(=O)N(C)C3)n1 (stereo not drawn) [GT-04034, N-(1-(4-(2,6-dioxopiperidin-3-yl)benzyl)piperidin-4-yl)-2-fluoro-5-methoxy-4-((4-((2-methyl-3-oxoisoindolin-4-yl)oxy)-5-(trifluoromethyl)pyrimidin-2-yl)amino)benzamide]",A (A is defined as 0% ≤ substrate protein remaining % ≤ 80%),–
40 to 53%,80 to 100%,"COc1cc(C(=O)NC2CCN(Cc3ccc(C4CCC(=O)NC4=O)c(F)c3)CC2)c(F)cc1Nc1ncc(C(F)(F)F)c(Oc2cccc3c2C(=O)N(C)C3)n1 (stereo not drawn) [GT-04035, N-(1-(4-(2,6-dioxopiperidin-3-yl)-3-fluorobenzyl)piperidin-4-yl)-2-fluoro-5-methoxy-4-((4-((2-methyl-3-oxoisoindolin-4-yl)oxy)-5-(trifluoromethyl)pyrimidin-2-yl)amino)benzamide]",A (A is defined as 0% ≤ substrate protein remaining % ≤ 80%),IC50 [4]: 50 to 100 nM
20 to 30%,60 to 80%,"CNC(=O)c1ccccc1Nc1cc(Nc2cc(C)c(N3CCC(N(C)Cc4ccc(C5CCC(=O)NC5=O)c(F)c4)CC3)cc2OC(C)C)ncc1C(F)(F)F (stereo not drawn) [GT-04095, 2-((2-((4-(4-((4-(2,6-dioxopiperidin-3-yl)-3-fluorobenzyl)(methyl)amino)piperidin-1-yl)-2-isopropoxy-5-methylphenyl)amino)-5-(trifluoromethyl)pyridin-4-yl)amino)-N-methylbenzamide]",A (A is defined as 0% ≤ substrate protein remaining % ≤ 80%),–

# More lines, now with the values behind:
SMILES,inhibition at 0.5 µM [3],inhibition at 2 µM [3],Degradation of substrate protein FAK (substrate protein remaining %) [1],also measured
"CNC(=O)c1ccccc1Nc1cc(Nc2ccc(N3CCC(N4CCN(Cc5ccc(C6CCC(=O)NC6=O)cc5)CC4)CC3)cc2OC)ncc1C(F)(F)F (stereo not drawn) [GT-03599, 2-((2-((4-(4-(4-(4-(2,6-dioxopiperidin-3-yl)benzyl)piperazin-1-yl)piperidin-1-yl)-2-methoxyphenyl)amino)-5-(trifluoromethyl)pyridin-4-yl)amino)-N-methylbenzamide]",–,–,A (A is defined as 0% ≤ substrate protein remaining % ≤ 80%),IC50 [2]: 100 to 500 nM
"NC(=O)c1ncc(N2CCCCC2)nc1Nc1ccc(C2CCN(Cc3ccc(N4CCC(=O)NC4=O)cc3F)CC2)cc1 [GT-04790, 3-((4-(1-(4-(2,4-dioxotetrahydropyrimidin-1(2H)-yl)-2-fluorobenzyl)piperidin-4-yl)phenyl)amino)-5-(piperidin-1-yl)pyrazine-2-carboxamide]",–,–,–,IC50 [5]: 100 to 500 nM; IC50 [6]: 500 to 1000 nM; IC50 [7]: 500 to 1000 nM; IC50 [8]: 100 to 500 nM
"CNC(=O)c1ccccc1Nc1cc(Nc2ccc(N3CCC(N(C)Cc4ccc(C5CCC(=O)NC5=O)cn4)CC3)cc2OC)ncc1C(F)(F)F (stereo not drawn) [GT-07658, 2-((2-((4-(4-(((5-(2,6-dioxopiperidin-3-yl)pyridin-2-yl)methyl)(methyl)amino)piperidin-1-yl)-2-methoxyphenyl)amino)-5-(trifluoromethyl)pyridin-4-yl)amino)-N-methylbenzamide]",–,–,A (A is defined as 0% ≤ substrate protein remaining % ≤ 80%),–
"CNC(=O)c1ccccc1Nc1cc(Nc2cc(C)c(C3CCN(Cc4ccc(N5CCC(=O)NC5=O)nc4)CC3)cc2OC(C)C)ncc1C(F)(F)F [GT-07670, 2-((2-((4-(1-((6-(2,4-dioxotetrahydropyrimidin-1(2H)-yl)pyridin-3-yl)methyl)piperidin-4-yl)-2-isopropoxy-5-methylphenyl)amino)-5-(trifluoromethyl)pyridin-4-yl)amino)-N-methylbenzamide]",–,–,A (A is defined as 0% ≤ substrate protein remaining % ≤ 80%),–
"CNC(=O)c1ccccc1Nc1cc(Nc2cc(C)c(C3CCN(Cc4cncc(N5CCC(=O)NC5=O)c4)CC3)cc2OC(C)C)ncc1C(F)(F)F [GT-07674, 2-((2-((4-(1-((5-(2,4-dioxotetrahydropyrimidin-1(2H)-yl)pyridin-3-yl)methyl)piperidin-4-yl)-2-isopropoxy-5-methylphenyl)amino)-5-(trifluoromethyl)pyridin-4-yl)amino)-N-methylbenzamide]",–,–,A (A is defined as 0% ≤ substrate protein remaining % ≤ 80%),–
"CNC(=O)c1ccccc1Nc1cc(Nc2cc(C)c(C3CCN(Cc4cncc(C5CCC(=O)NC5=O)c4)CC3)cc2OC(C)C)ncc1C(F)(F)F (stereo not drawn) [GT-07678, 2-((2-((4-(1-((5-(2,6-dioxopiperidin-3-yl)pyridin-3-yl)methyl)piperidin-4-yl)-2-isopropoxy-5-methylphenyl)amino)-5-(trifluoromethyl)pyridin-4-yl)amino)-N-methylbenzamide]",–,–,A (A is defined as 0% ≤ substrate protein remaining % ≤ 80%),–
"CNC(=O)c1ccccc1Nc1cc(Nc2cc(C)c(C3CCN(Cc4cnc(N5CCC(=O)NC5=O)cn4)CC3)cc2OC(C)C)ncc1C(F)(F)F [GT-07680, 2-((2-((4-(1-((5-(2,4-dioxotetrahydropyrimidin-1(2H)-yl)pyrazin-2-yl)methyl)piperidin-4-yl)-2-isopropoxy-5-methylphenyl)amino)-5-(trifluoromethyl)pyridin-4-yl)amino)-N-methylbenzamide]",–,–,A (A is defined as 0% ≤ substrate protein remaining % ≤ 80%),–
